Consider 38 molecules from patent publication US20060063759A1, “Tricyclic steroid hormone nuclear receptor modulators” (priority 2002, published 2006).

The target in assay [1] is T1, human MR (Homo sapiens, UniProt P08235).
T1 construct: The full length human MR gene is cloned from a human kidney or human brain cDNA library; His tag from the pAcHLT vector (own knowledge); made in house; host or cells: Sf9 insect cells (baculovirus, pAcHLT transfer vector)
T1 sequence (P08235 1-984): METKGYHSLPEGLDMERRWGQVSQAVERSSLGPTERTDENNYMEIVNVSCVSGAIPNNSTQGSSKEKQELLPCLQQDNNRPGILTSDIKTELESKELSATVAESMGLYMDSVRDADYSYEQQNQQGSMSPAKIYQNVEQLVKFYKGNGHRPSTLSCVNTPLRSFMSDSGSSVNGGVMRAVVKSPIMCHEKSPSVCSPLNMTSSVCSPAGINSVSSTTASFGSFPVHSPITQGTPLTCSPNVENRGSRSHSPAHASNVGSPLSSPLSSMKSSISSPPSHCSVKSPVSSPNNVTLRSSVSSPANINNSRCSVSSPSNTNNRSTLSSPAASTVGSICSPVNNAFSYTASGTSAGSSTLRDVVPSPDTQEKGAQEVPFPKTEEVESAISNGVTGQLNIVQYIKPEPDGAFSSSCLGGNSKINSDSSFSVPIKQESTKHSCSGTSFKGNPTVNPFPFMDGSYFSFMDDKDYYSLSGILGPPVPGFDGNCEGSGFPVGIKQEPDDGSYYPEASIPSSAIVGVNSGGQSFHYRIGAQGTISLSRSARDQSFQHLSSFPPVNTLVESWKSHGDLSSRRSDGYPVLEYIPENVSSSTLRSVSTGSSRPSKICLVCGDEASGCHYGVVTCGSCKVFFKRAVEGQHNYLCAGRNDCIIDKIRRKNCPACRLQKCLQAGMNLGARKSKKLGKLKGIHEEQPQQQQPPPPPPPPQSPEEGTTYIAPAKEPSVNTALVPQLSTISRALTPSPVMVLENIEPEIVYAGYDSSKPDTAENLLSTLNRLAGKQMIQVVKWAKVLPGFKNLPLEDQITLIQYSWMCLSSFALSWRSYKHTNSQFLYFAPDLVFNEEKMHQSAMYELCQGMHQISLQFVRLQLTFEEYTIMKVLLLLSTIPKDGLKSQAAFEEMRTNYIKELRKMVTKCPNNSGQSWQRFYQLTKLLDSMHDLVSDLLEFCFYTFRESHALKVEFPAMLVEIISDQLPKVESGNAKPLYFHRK
Nature of the assay: Mineralocorticoid Receptor Binding Assay ([3H]-aldosterone). The note with it: [3H]-aldosterone binding, human MR expressed in Sf9 cells; read-out: MR Ki. The gist of the method:
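Receptor source: freeze-thaw lysate of baculovirus-infected Sf9 cells carrying full-length human MR, 20-25 μg protein. Incubation ~16 h at 4 °C with shaking, pH 7.5 buffer containing 30 mM sodium molybdate and 10% glycerol.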

Assay [2] concerns the target T2, glucocorticoid receptor (Homo sapiens, UniProt P04150).
T2 construct: containing 50-200 ug of A549 cell extract and 1.86 nM [^3H]-dexamethasone; host or cells: A549 human lung epithelial cells (sonicated cell extract)
T2 sequence (P04150 1-777): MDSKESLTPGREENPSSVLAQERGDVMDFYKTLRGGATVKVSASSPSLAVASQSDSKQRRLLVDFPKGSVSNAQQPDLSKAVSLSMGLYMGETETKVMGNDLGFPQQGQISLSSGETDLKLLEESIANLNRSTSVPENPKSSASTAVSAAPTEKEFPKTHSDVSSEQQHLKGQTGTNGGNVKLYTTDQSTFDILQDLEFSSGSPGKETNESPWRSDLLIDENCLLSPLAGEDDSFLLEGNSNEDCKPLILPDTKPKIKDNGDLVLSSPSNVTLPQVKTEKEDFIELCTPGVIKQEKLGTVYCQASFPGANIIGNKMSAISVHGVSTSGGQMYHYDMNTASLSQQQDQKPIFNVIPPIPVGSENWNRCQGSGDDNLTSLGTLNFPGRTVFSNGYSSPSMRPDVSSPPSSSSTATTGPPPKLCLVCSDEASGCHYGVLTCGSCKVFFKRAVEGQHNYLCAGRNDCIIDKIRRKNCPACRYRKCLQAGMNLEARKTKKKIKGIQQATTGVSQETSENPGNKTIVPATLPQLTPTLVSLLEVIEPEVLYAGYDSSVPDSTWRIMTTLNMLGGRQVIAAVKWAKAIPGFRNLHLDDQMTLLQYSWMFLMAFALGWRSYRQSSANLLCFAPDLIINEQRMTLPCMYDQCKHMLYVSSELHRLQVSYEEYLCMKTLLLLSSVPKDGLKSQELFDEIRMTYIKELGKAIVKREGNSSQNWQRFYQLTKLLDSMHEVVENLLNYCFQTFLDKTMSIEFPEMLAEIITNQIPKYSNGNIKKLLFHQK
Briefly: Glucocorticoid Receptor Binding Assay ([3H]-dexamethasone, A549 cell extract). Particulars: [3H]-dexamethasone binding, read-out: GR Ki. In short, it runs like this:
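Displacement of [3H]-dexamethasone (1.86 nM) from glucocorticoid receptor in sonicated A549 lung epithelial cell extracts, 16 h at 4 °C, pH 7.2 molybdate-containing buffer. Bound radioactivity was scintillation-counted after charcoal/dextran stripping of free ligand.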

The Ki is the dissociation constant of the complex between target and ligand, obtained from inhibition or displacement. `CS(=O)(=O)Nc1cccc(/C=C2\c3ccccc3CCc3cc(S(C)(=O)=O)ccc32)c1` [Example 392]: the Ki in assay [1] and in assay [2] was less than 500 nM throughout.
Turning to `CS(=O)(=O)Nc1cccc(/C=C2/c3ccccc3CCc3cc(S(C)(=O)=O)ccc32)c1` [Example 393], the inhibition constant (Ki) in assay [1] and in assay [2] was less than 500 nM throughout.
Consider `Nc1ccc(C=C2c3ccccc3CCc3cc(Cl)ccc32)cc1` [Example 394], for which the Ki in assay [1] and in assay [2] was less than 500 nM in each case.
As to `CS(=O)(=O)Nc1ccc(C=C2c3ccccc3CCc3cc(Cl)ccc32)cc1` [Example 395], the Ki in assay [1] is less than 500 nM; in assay [2], less than 10000 nM.
The corresponding values for `COC(=O)Nc1cccc(C=C2c3ccccc3CCc3cc(Cl)ccc32)c1` [Example 396] are less than 500 nM and less than 500 nM.
On the same counts, the results for `CN(C)C(=O)Nc1cccc(C=C2c3ccccc3CCc3cc(Cl)ccc32)c1` [Example 397] are less than 500 nM and less than 10000 nM.
For `CN(c1cccc(C=C2c3ccccc3CCc3cc(Cl)ccc32)c1)S(C)(=O)=O` [Example 398], the Ki in assay [1] and in assay [2] was less than 500 nM throughout.
With `O=S(=O)(Nc1cccc(C=C2c3ccccc3CCc3cc(Cl)ccc32)c1)c1ccccc1` [Example 399], the values for the Ki in assay [1] and in assay [2] were less than 500 nM and less than 10000 nM, respectively.
On the same counts, the results for `O=C(Nc1cccc(C=C2c3ccccc3CCc3cc(Cl)ccc32)c1)C(F)(F)F` [Example 400] are less than 500 nM and less than 500 nM.
On the same counts, the results for `CS(=O)(=O)Nc1cccc(C=C2c3ccccc3CCc3cc(N)ccc32)c1` [Example 401] are less than 500 nM and less than 500 nM.
The corresponding values for `CN(C)c1ccc2c(c1)CCc1ccccc1C2=Cc1cccc(NS(C)(=O)=O)c1` [Example 402] are less than 500 nM and less than 10000 nM.
Consider `CS(=O)(=O)Nc1cccc(C=C2c3ccccc3CCc3c(N)cccc32)c1` [Example 403], for which the Ki in assay [1] and in assay [2] was less than 500 nM each time.
`CN(C)c1cccc2c1CCc1ccccc1C2=Cc1cccc(NS(C)(=O)=O)c1` [Example 404]: the Ki in assay [1] and in assay [2] was less than 500 nM each time.
For `CC(=O)Nc1ccc2c(c1)CCc1ccccc1C2=Cc1cccc(NS(C)(=O)=O)c1` [Example 405], the Ki in assay [1] and in assay [2] was less than 500 nM each time.
Turning to `CC(=O)Nc1cccc2c1CCc1ccccc1C2=Cc1cccc(NS(C)(=O)=O)c1` [Example 406], the Ki in assay [1] and in assay [2] was less than 500 nM throughout.
As to `CS(=O)(=O)Nc1cccc(/C=C2\c3ccccc3CCc3cc(N)ccc32)c1` [Example 407], the Ki in assay [1] and in assay [2] was less than 500 nM throughout.
For the molecule `CS(=O)(=O)Nc1cccc(/C=C2/c3ccccc3CCc3cc(N)ccc32)c1` [Example 408], the inhibition constant (Ki) in assay [1] and in assay [2] was less than 500 nM throughout.
Consider `CS(=O)(=O)Nc1cccc(/C=C2\c3ccccc3CCc3c(N)cccc32)c1` [Example 409], for which the Ki in assay [1] and in assay [2] was less than 500 nM throughout.
As for `CS(=O)(=O)Nc1cccc(/C=C2/c3ccccc3CCc3c(N)cccc32)c1` [Example 410], the Ki in assay [1] and in assay [2] was less than 500 nM each time.
On to `CS(=O)(=O)Nc1cccc(C=C2c3ccccc3CCc3c2cccc3-c2ccccc2)c1` [Example 411], for which the Ki in assay [1] and in assay [2] was less than 500 nM in each case.
For `CS(=O)(=O)Nc1cccc(C=C2c3ccccc3CCc3cc(-c4ccccc4)ccc32)c1` [Example 412], the inhibition constant Ki in assay [1] was less than 500 nM; in assay [2], less than 1000 nM.
The corresponding values for `O=C(Nc1cccc(/C=C2\c3ccccc3CCc3cc(Cl)ccc32)c1)C(F)(F)F` [Example 413] are less than 500 nM and less than 500 nM.
On the same counts, the results for `O=C(Nc1cccc(/C=C2/c3ccccc3CCc3cc(Cl)ccc32)c1)C(F)(F)F` [Example 414] are less than 500 nM and less than 500 nM.
On the same counts, the results for `CS(=O)(=O)Nc1cccc(/C=C2/c3ccccc3CCc3cc(C(N)=O)ccc32)c1` [Example 415] are less than 500 nM and less than 500 nM.
For `CS(=O)(=O)Nc1cccc(/C=C2\c3ccccc3CCc3cc(C(N)=O)ccc32)c1` [Example 416], the Ki in assay [1] and in assay [2] was less than 500 nM each time.
For `CS(=O)(=O)Nc1cccc(/C=C2\c3ccccc3CCc3cc(C(=O)O)ccc32)c1` [Example 417], the Ki in assay [1] and in assay [2] was less than 500 nM each time.
On to `CS(=O)(=O)Nc1cccc(/C=C2/c3ccccc3CCc3cc(C(=O)O)ccc32)c1` [Example 418], for which the inhibitory constant (Ki) was less than 500 nM in assay [1] and less than 1000 nM in assay [2].
The corresponding values for `COc1ccc2c(c1)CCc1cc(C)ccc1C2=Cc1cccc(NS(C)(=O)=O)c1` [Example 419] are less than 500 nM and less than 500 nM.
The corresponding values for `Cc1ccc2c(c1)CCc1cc(F)ccc1C2=Cc1cccc(NS(C)(=O)=O)c1` [Example 420] are less than 500 nM and less than 500 nM.
For `Cc1ccc2c(c1)CCc1cc(F)ccc1/C2=C\c1cccc(NS(C)(=O)=O)c1` [Example 421], the Ki in assay [1] and in assay [2] was less than 500 nM in each case.
Regarding `Cc1ccc2c(c1)CCc1cc(F)ccc1/C2=C/c1cccc(NS(C)(=O)=O)c1` [Example 422], the Ki in assay [1] and in assay [2] was less than 500 nM throughout.
In the case of `COc1ccc2c(c1)CCc1cc(C)ccc1/C2=C\c1cccc(NS(C)(=O)=O)c1` [Example 423], the Ki in assay [1] and in assay [2] was less than 500 nM in each case.
As for `COc1ccc2c(c1)CCc1cc(C)ccc1/C2=C/c1cccc(NS(C)(=O)=O)c1` [Example 424], the Ki in assay [1] and in assay [2] was less than 500 nM in each case.
For the molecule `CS(=O)(=O)Nc1cccc(C=C2c3ccccc3CCc3cc(OCCN4CCOCC4)ccc32)c1` [Example 427], the Ki in assay [1] is less than 500 nM; in assay [2], less than 10000 nM.
The corresponding values for `O=c1[nH]c2cc(C=C3c4ccc(F)cc4CCc4cc(F)ccc43)ccc2n1CCN1CCOCC1` [Example 436, 5-(2,8-difluoro-10,11-dihydro-dibenzo[a,d]cyclohepten-5-ylidenemethyl)-1-(2-morpholin-4-yl-ethyl)-1,3-dihydro-benzoimidazol-2-one] are less than 500 nM and less than 1000 nM.
With `C(=C1c2ccccc2CCc2ccccc21)c1cn[nH]c1` [Example 439], the inhibitory constant (Ki) in assay [1] and in assay [2] was less than 500 nM throughout.
On to `Nc1nc2ccc(C=C3c4ccccc4CCc4ccccc43)cc2s1` [Example 442], for which the Ki in assay [1] and in assay [2] was less than 500 nM throughout.
`C(=C1c2ccccc2CCc2ccccc21)c1ccc2nc[nH]c2c1` [Example 443]: the Ki is less than 500 nM in assay [1] and less than 10000 nM in assay [2].
